Measurements as given in patent US20180185324A1, “NOVEL CANNABINOID COMBINATION THERAPIES FOR MULTIPLE MYELOMA (MM)” (ONE WORLD CANNABIS LTD, priority 2015, published 2018).
Like-named read-outs stand apart in the source and are kept apart here.

Tested on: RPMI8226 multiple myeloma (MM) human cell lines
Experiment: Cytotoxic effect of CBD, THC and combinations on RPMI8226 cells
Format: cell-based
Settings: for IC50: Homo sapiens; for survival of MM cells (in words): concentration dependent manner, FIG. 2; for survival of RPMIS MM cells: concentration of about 20 μM and higher
Procedure: This example examines the cytotoxic effect of CBD alone, THC alone and combinations of both compounds. The cytotoxic effect of CBD, THC and their combinations in different ratios such as CBD: THC 1:1; CBD: THC 5:1 and CBD: THC 1:5 were evaluated on RPMI8226 multiple myeloma (MM) human cell lines. Reference is now made to FIG. 2 which presents a graph of RPMIS MM cell line survival (%) vs. concentration (μM).

| Structure (SMILES) | IC50 (RPMI-8226, RPMI8226 (RPMIS) MM cells, read-out: dose that caused 50% of MM cell death) [µM] | survival of MM cells (in words) | survival of RPMIS MM cells | IC50 (RPMI-8226, read-out: dose that caused 50% of MM cell death) [µM] |
| --- | --- | --- | --- | --- |
| C=C(C)[C@@H]1CCC(C)=C[C@H]1c1c(O)cc(CCCCC)cc1O [CBD, cannabidiol] | 16 | decreased the survival | about 50% |  |
| CCCCCc1cc(O)c2c(c1)OC(C)(C)[C@@H]1CCC(C)=C[C@@H]21 [THC, Tetrahydrocannabinol] |  | decreased the survival | about 50% | 22 |
